# According to patent US20240254111A1, “SUBSTITUTED BENZAMIDES AS HERBICIDES” (SYNGENTA CROP PROTECTION AG, priority 2021, published 2024):
# What was measured:
# Assay type in all cases: in vivo
# [1] = tested on: Oryza sativa (ORYSA, Rice); assay: Glasshouse herbicide test, Table B1 (crop damage); conditions: POST Application, evaluated after 14 days
# [2] = tested on: Euphorbia heterophylla (EPHHIL); assay: Glasshouse herbicide test, Table B1; conditions: POST Application, evaluated after 14 days
# Sinapis arvensis (SINAR) = assay: Glasshouse herbicide test, Table B1; conditions: POST Application, evaluated after 14 days
# [3] = tested on: Panicum miliaceum (PANMVI); assay: Glasshouse herbicide test, Table B1; conditions: POST Application, evaluated after 14 days
# [4] = tested on: Amaranthus retoflexus (AMARE); assay: Glasshouse pre-/post-emergence herbicide test, Table B2; conditions: 130 g/h, evaluated after 13 days
# Method: (§1) Seeds of a variety of test species are sown in standard soil in pots Amaranthus retoflexus (AMARE), Setaria faberi (SETFA), Echinochloa crus-galli (ECHCG), Ipomoea hederacea (IPOHE)). After cultivation for one day (pre-emergence) or after 8 days cultivation (post-emergence) under controlled conditions in a glasshouse (at 24/16° C., day/night; 14 hours light; 65% humidity), the plants are sprayed with an aqueous spray solution derived from the formulation of the technical active ingredient in acetone/water (50:50) solution containing 0.5% Tween 20 (polyoxyethelyene sorbitan monolaurate, CAS RN 9005-64-5). Compounds are applied at 130 g/h unless otherwise indicated. The test plants are then grown in a glasshouse under controlled conditions in a glasshouse (at 24/16° C., day/night; 14 hours light; 65% humidity) and watered twice daily. After 13 days for pre and post-emergence, the test is evaluated for the percentage damage caused to the plant. The biological activities are shown in the following table on a five-point scale (5=80-100%; 4=60-79%; 3=40-59%; 2=20-39%; 1=0-19%).
# [5] = tested on: Echinochloa crus-galli (ECHCG); assay: as above; conditions: 130 g/h, evaluated after 13 days
# Method: as §1
# [6] = tested on: Ipomoea hederacea (IPOHE); assay: as above; conditions: 130 g/h, evaluated after 13 days
# Method: as §1
# Setaria faberi (SETFA) = assay: as above; conditions: 130 g/h, evaluated after 13 days
# Method: as §1
compound,measurement,setting,value
"Cn1nnnc1NC(=O)c1ccc(OC(F)(F)F)c(NC(=O)C2CCOCC2)c1Cl [Compound 1.001, N-[2-chloro-3-[(1-methyltetrazol-5-yl)carbamoyl]-6-(trifluoromethoxy)phenyl]-tetrahydropyran-4-carboxamide]",ORYSA damage to plant (100=total damage; 0=no damage),[1]; rate 30 g/ha,0
same,ORYSA damage to plant (100=total damage; 0=no damage),[1]; rate 130 g/ha,0
same,ORYSA damage to plant (100=total damage; 0=no damage),[1]; rate 250 g/ha,0
same,EPHHL damage to plant (100=total damage; 0=no damage),[2]; rate 30 g/ha,100
same,EPHHL damage to plant (100=total damage; 0=no damage),[2]; rate 130 g/ha,100
same,EPHHL damage to plant (100=total damage; 0=no damage),[2]; rate 250 g/ha,100
same,SINAR damage to plant (100=total damage; 0=no damage),Sinapis arvensis (SINAR); rate 30 g/ha,100
same,SINAR damage to plant (100=total damage; 0=no damage),Sinapis arvensis (SINAR); rate 130 g/ha,100
same,SINAR damage to plant (100=total damage; 0=no damage),Sinapis arvensis (SINAR); rate 250 g/ha,100
same,PANMI damage to plant (100=total damage; 0=no damage),[3]; rate 30 g/ha,90
same,PANMI damage to plant (100=total damage; 0=no damage),[3]; rate 130 g/ha,100
same,PANMI damage to plant (100=total damage; 0=no damage),[3]; rate 250 g/ha,100
same,"AMARE percentage damage, five-point scale",[4]; POST Application,5 (5=80-100%)
same,"AMARE percentage damage, five-point scale",[4]; PRE Application,5 (5=80-100%)
same,"ECHCG percentage damage, five-point scale",[5]; POST Application,5 (5=80-100%)
same,"ECHCG percentage damage, five-point scale",[5]; PRE Application,5 (5=80-100%)
same,"IPOHE percentage damage, five-point scale",[6]; POST Application,5 (5=80-100%)
same,"IPOHE percentage damage, five-point scale",[6]; PRE Application,4 (4=60-79%)
same,"SETFA percentage damage, five-point scale",Setaria faberi (SETFA); POST Application,5 (5=80-100%)
same,"SETFA percentage damage, five-point scale",Setaria faberi (SETFA); PRE Application,5 (5=80-100%)
"Cn1nnnc1NC(=O)c1ccc(OC(F)F)c(NC(=O)C2CCOCC2)c1Cl [Compound 1.002, N-[2-chloro-6-(difluoromethoxy)-3-[(1-methyltetrazol-5-yl)carbamoyl]phenyl]tetrahydropyran-4-carboxamide]",ORYSA damage to plant (100=total damage; 0=no damage),[1]; rate 30 g/ha,0
same,ORYSA damage to plant (100=total damage; 0=no damage),[1]; rate 130 g/ha,10
same,ORYSA damage to plant (100=total damage; 0=no damage),[1]; rate 250 g/ha,20
same,EPHHL damage to plant (100=total damage; 0=no damage),[2]; rate 30 g/ha,90
same,EPHHL damage to plant (100=total damage; 0=no damage),[2]; rate 130 g/ha,100
same,EPHHL damage to plant (100=total damage; 0=no damage),[2]; rate 250 g/ha,100
same,SINAR damage to plant (100=total damage; 0=no damage),Sinapis arvensis (SINAR); rate 30 g/ha,90
same,SINAR damage to plant (100=total damage; 0=no damage),Sinapis arvensis (SINAR); rate 130 g/ha,100
same,SINAR damage to plant (100=total damage; 0=no damage),Sinapis arvensis (SINAR); rate 250 g/ha,100
same,PANMI damage to plant (100=total damage; 0=no damage),[3]; rate 30 g/ha,90
same,PANMI damage to plant (100=total damage; 0=no damage),[3]; rate 130 g/ha,100
same,PANMI damage to plant (100=total damage; 0=no damage),[3]; rate 250 g/ha,100
same,"AMARE percentage damage, five-point scale",[4]; POST Application,5 (5=80-100%)
same,"AMARE percentage damage, five-point scale",[4]; PRE Application,5 (5=80-100%)
same,"ECHCG percentage damage, five-point scale",[5]; POST Application,5 (5=80-100%)
same,"ECHCG percentage damage, five-point scale",[5]; PRE Application,5 (5=80-100%)
same,"IPOHE percentage damage, five-point scale",[6]; POST Application,4 (4=60-79%)
same,"IPOHE percentage damage, five-point scale",[6]; PRE Application,5 (5=80-100%)
same,"SETFA percentage damage, five-point scale",Setaria faberi (SETFA); POST Application,5 (5=80-100%)
same,"SETFA percentage damage, five-point scale",Setaria faberi (SETFA); PRE Application,5 (5=80-100%)
Cn1nnnc1NC(=O)c1ccc(OC(F)(F)F)c(NC(=O)C2(C)CCOCC2)c1Cl [Compound 1.007],"AMARE percentage damage, five-point scale",[4]; POST Application,5 (5=80-100%)
same,"AMARE percentage damage, five-point scale",[4]; PRE Application,5 (5=80-100%)
same,"ECHCG percentage damage, five-point scale",[5]; POST Application,5 (5=80-100%)
same,"ECHCG percentage damage, five-point scale",[5]; PRE Application,2 (2=20-39%)
same,"IPOHE percentage damage, five-point scale",[6]; PRE Application,3 (3=40-59%)
same,"SETFA percentage damage, five-point scale",Setaria faberi (SETFA); POST Application,5 (5=80-100%)
same,"SETFA percentage damage, five-point scale",Setaria faberi (SETFA); PRE Application,1 (1=0-19%)
Cn1nnnc1NC(=O)c1ccc(OC(F)F)c(NC(=O)C2(C)CCOCC2)c1Cl [Compound 1.009],"AMARE percentage damage, five-point scale",[4]; POST Application,5 (5=80-100%)
same,"AMARE percentage damage, five-point scale",[4]; PRE Application,5 (5=80-100%)
same,"ECHCG percentage damage, five-point scale",[5]; POST Application,4 (4=60-79%)
same,"ECHCG percentage damage, five-point scale",[5]; PRE Application,1 (1=0-19%)
same,"IPOHE percentage damage, five-point scale",[6]; POST Application,4 (4=60-79%)
same,"IPOHE percentage damage, five-point scale",[6]; PRE Application,2 (2=20-39%)
same,"SETFA percentage damage, five-point scale",Setaria faberi (SETFA); POST Application,2 (2=20-39%)
same,"SETFA percentage damage, five-point scale",Setaria faberi (SETFA); PRE Application,1 (1=0-19%)
Cc1c(C(=O)Nc2nnnn2C)ccc(OC(F)(F)F)c1NC(=O)C1CCOCC1 [Compound 1.010],"AMARE percentage damage, five-point scale",[4]; POST Application,4 (4=60-79%)
same,"AMARE percentage damage, five-point scale",[4]; PRE Application,5 (5=80-100%)
same,"ECHCG percentage damage, five-point scale",[5]; POST Application,5 (5=80-100%)
same,"ECHCG percentage damage, five-point scale",[5]; PRE Application,3 (3=40-59%)
same,"IPOHE percentage damage, five-point scale",[6]; POST Application,4 (4=60-79%)
same,"IPOHE percentage damage, five-point scale",[6]; PRE Application,2 (2=20-39%)
same,"SETFA percentage damage, five-point scale",Setaria faberi (SETFA); POST Application,5 (5=80-100%)
same,"SETFA percentage damage, five-point scale",Setaria faberi (SETFA); PRE Application,2 (2=20-39%)
CCn1nnnc1NC(=O)c1ccc(OC(F)(F)F)c(NC(=O)C2CCOCC2)c1Cl [Compound 1.011],"AMARE percentage damage, five-point scale",[4]; POST Application,5 (5=80-100%)
same,"AMARE percentage damage, five-point scale",[4]; PRE Application,5 (5=80-100%)
same,"ECHCG percentage damage, five-point scale",[5]; POST Application,5 (5=80-100%)
same,"ECHCG percentage damage, five-point scale",[5]; PRE Application,5 (5=80-100%)
same,"IPOHE percentage damage, five-point scale",[6]; POST Application,5 (5=80-100%)
same,"IPOHE percentage damage, five-point scale",[6]; PRE Application,5 (5=80-100%)
same,"SETFA percentage damage, five-point scale",Setaria faberi (SETFA); POST Application,5 (5=80-100%)
same,"SETFA percentage damage, five-point scale",Setaria faberi (SETFA); PRE Application,5 (5=80-100%)
CCn1nnnc1NC(=O)c1ccc(OC(F)F)c(NC(=O)C2CCOCC2)c1Cl [Compound 1.012],"AMARE percentage damage, five-point scale",[4]; POST Application,5 (5=80-100%)
same,"AMARE percentage damage, five-point scale",[4]; PRE Application,4 (4=60-79%)
same,"ECHCG percentage damage, five-point scale",[5]; POST Application,5 (5=80-100%)
same,"ECHCG percentage damage, five-point scale",[5]; PRE Application,5 (5=80-100%)
same,"IPOHE percentage damage, five-point scale",[6]; POST Application,4 (4=60-79%)
same,"IPOHE percentage damage, five-point scale",[6]; PRE Application,4 (4=60-79%)
same,"SETFA percentage damage, five-point scale",Setaria faberi (SETFA); POST Application,5 (5=80-100%)
same,"SETFA percentage damage, five-point scale",Setaria faberi (SETFA); PRE Application,3 (3=40-59%)
